Reference: patent US20190248768A1, “METHOD FOR PURIFYING BENZOPYRAN DERIVATIVE, CRYSTAL FORM THEREOF, AND METHOD FOR PREPARING CRYSTAL FORM” (priority 2015, published 2019)

Legend:
Assay type in all cases: physicochemical
[1] = Accelerated stability test
Protocol: (§1) In the following examples and experimental examples, the high performance liquid chromatography (HPLC) analyses were carried out under the following conditions: • Analytical column: C18, 4.6×250 mm, 5 μm • Mobile phase: buffer solution/acetonitrile=40/60 (v/v) • Buffer solution: ammonium formate (0.657 g) was taken and then added to a 1 L volumetric flask. Water was added thereto to the mark so as to dissolve ammonium formate and then the pH of the resulting solution was adjusted to pH 5.5±0.2 with a diluted formic acid. • Wavelength: 254 nm • Column temperature: 30° C. • Flow rate: 1.0 mL/min. • Injection volume: 10 μL
(§2) The X-ray powder diffraction (XRPD) analyses were carried out with the PANalytical's X-pert Pro X-ray powder diffractometer. The measurements at the angles ranging from 3 to 80°2θ values were performed at a scanning rate of 3° per second, using CuKα1 radiation (λα1=1.54060 Å) produced at the conditions of 40 mA and 40 kV.
The crystalline form A of the compound of Formula 1 obtained in Example 1 and the amorphous form of the compound of Formula 1 obtained in Preparation Example were stored at the accelerated condition (40° C., 75% RH) for 2 weeks, so as to evaluate the stabilities thereof.

Thermal stability test = conditions: 100° C.
Protocol: as §1, §2
The crystalline form A of the compound of Formula 1 obtained in Example 1 and the amorphous form of the compound of Formula 1 obtained in Preparation Example were stored at the heat-condition (100° C.) for 2 weeks, so as to evaluate the stabilities thereof.

[2] = Stability test on humidity
Protocol: as §1, §2
The crystalline form A of the compound of Formula 1 obtained in Example 1 and the amorphous form of the compound of Formula 1 obtained in Preparation Example were stored at the humid condition (25° C., 98% RH) for 2 weeks, so as to evaluate the stabilities thereof.

Compound | Water contents ([1]; 40° C., 75% RH, 1 week) | Purity (as an anhydrous form) ([1]; 40° C., 75% RH, 2 weeks) | Water contents ([1]; 40° C., 75% RH, 2 weeks) | Water contents ([1]; 40° C., 75% RH, 1 day) | Water contents ([1]; 40° C., 75% RH, 2 days) | Purity (as an anhydrous form) ([1]; 40° C., 75% RH, Initial) | Water contents ([1]; 40° C., 75% RH, Initial) | Purity (as an anhydrous form) (Thermal stability test; 2 weeks) | Water contents (Thermal stability test; 2 weeks) | Purity (as an anhydrous form) (Thermal stability test; Initial) | Water contents (Thermal stability test; Initial) | change in the appearance (Thermal stability test; during 2 weeks) | enantiomer during the test period (Thermal stability test; during 2 weeks) | Water contents ([2]; 25° C., 98% RH, 1 week) | Purity (as an anhydrous form) ([2]; 25° C., 98% RH, 2 weeks) | Water contents ([2]; 25° C., 98% RH, 2 weeks) | Water contents ([2]; 25° C., 98% RH, 1 day) | Water contents ([2]; 25° C., 98% RH, 2 days) | Purity (as an anhydrous form) ([2]; 25° C., 98% RH, Initial) | Water contents ([2]; 25° C., 98% RH, Initial) | further results
COC(OC)[C@]1(C)Oc2ccc(N)cc2[C@H](N(Cc2ncc[nH]2)c2ccc(Cl)cc2)[C@H]1O [amorphous form of the compound of Formula 1] [(2R,3R,4S)-6-amino-4-[N-(4-chlorophenyl)-N-(1H-imidazol-2-ylmethyl)amino]-3-hydroxy-2-methyl-2-dimethoxymethyl-3,4-dihydro-2H-1-benzopyran] | 2.52% | 96.72% | 2.60% | 2.30% | 2.64% | 96.96% | 1.05% | 92.34% | 0.34% | 96.96% | 1.05% | changed to brown color from the first day | no enantiomer was detected | 3.90% | 96.55% | 3.58% | 3.20% | 3.60% | 96.96% | 1.05% | water contents over the storing time ([1]; 40° C., 75% RH, during 2 weeks): up to 2.64%; hygroscopicity ([1]; accelerated condition (40° C., 75% RH)): very high hygroscopicity; Water contents ([1]; accelerated condition, in 1 day): 2.30 wt/wt %; enantiomer during the test period ([2]; 25° C., 98% RH, during 2 weeks): no enantiomer was detected; water contents over the storing time ([2]; 25° C., 98% RH, during 2 weeks): up to 3.90%; hygroscopicity ([2]; humid condition (25° C., 98% RH)): very high hygroscopicity
COC(OC)[C@]1(C)Oc2ccc(N)cc2[C@H](N(Cc2ncc[nH]2)c2ccc(Cl)cc2)[C@H]1O [crystalline form A of the compound of Formula 1] [(2R,3R,4S)-6-amino-4-[N-(4-chlorophenyl)-N-(1H-imidazol-2-ylmethyl)amino]-3-hydroxy-2-methyl-2-dimethoxymethyl-3,4-dihydro-2H-1-benzopyran] | 0.17% | 99.34% | 0.18% | 0.18% | 0.18% | 99.43% | 0.16% | 99.25% | 0.11% | 99.43% | 0.16% | changed to pale yellow color from the first week | no enantiomer was detected | 0.29% | 99.32% | 0.27% | 0.21% | 0.24% | 99.43% | 0.16% | XRPD analyses, crystalline form maintained ([1]; 40° C., 75% RH, during 2 weeks): the same crystalline form A was maintained; change in the appearance ([1]; 40° C., 75% RH, during 2 weeks): without any change in the appearance; enantiomer during the test period ([1]; 40° C., 75% RH, during 2 weeks): no enantiomer was detected; XRPD analyses, crystalline form maintained (Thermal stability test; during 2 weeks): the same crystalline form A was maintained; XRPD analyses, crystalline form maintained ([2]; 25° C., 98% RH, during 2 weeks): the same crystalline form A was maintained; change in the appearance ([2]; 25° C., 98% RH, during 2 weeks): without any change in the appearance; enantiomer during the test period ([2]; 25° C., 98% RH, during 2 weeks): no enantiomer was detected
